{
  "source": "patent US12527739B2",
  "about": "(Alcon Inc., priority 2022, dated 2026)",
  "key": {"[1]": {"tested_on": "form deprivation-induced myopia (FDM)", "assay": "Form deprivation-induced myopia (FDM) chick model", "format": "in vivo", "conditions": "FIG. 1 Panel A; for efficacy in FDM chick model: intravitreal injection day 2 and day 4, readout day 5; for change in refractive error (goggled eye value minus ungoggled eye value): with respect to 5% v/v ethanol solution"}, "M1 muscarinic receptor": {"biological_target": "T1, M1 muscarinic receptor (Homo sapiens, UniProt P11229)", "T1 sequence (P11229 1-460)": "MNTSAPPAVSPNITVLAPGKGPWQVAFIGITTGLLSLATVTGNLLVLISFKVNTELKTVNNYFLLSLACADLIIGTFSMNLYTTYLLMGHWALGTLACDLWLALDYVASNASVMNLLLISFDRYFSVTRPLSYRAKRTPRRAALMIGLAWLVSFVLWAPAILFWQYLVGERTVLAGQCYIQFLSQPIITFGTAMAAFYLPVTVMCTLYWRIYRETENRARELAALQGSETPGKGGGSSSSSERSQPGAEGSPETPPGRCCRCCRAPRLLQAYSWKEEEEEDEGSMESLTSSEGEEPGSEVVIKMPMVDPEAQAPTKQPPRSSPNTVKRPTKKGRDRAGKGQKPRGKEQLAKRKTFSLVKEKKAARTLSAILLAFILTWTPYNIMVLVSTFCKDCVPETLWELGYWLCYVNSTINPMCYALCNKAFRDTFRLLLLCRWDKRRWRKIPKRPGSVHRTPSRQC", "assay": "Muscarinic receptor radioligand displacement binding, M1"}, "M2 muscarinic receptor": {"biological_target": "T2, M2 muscarinic receptor (Homo sapiens, UniProt P08172)", "T2 sequence (P08172 1-466)": "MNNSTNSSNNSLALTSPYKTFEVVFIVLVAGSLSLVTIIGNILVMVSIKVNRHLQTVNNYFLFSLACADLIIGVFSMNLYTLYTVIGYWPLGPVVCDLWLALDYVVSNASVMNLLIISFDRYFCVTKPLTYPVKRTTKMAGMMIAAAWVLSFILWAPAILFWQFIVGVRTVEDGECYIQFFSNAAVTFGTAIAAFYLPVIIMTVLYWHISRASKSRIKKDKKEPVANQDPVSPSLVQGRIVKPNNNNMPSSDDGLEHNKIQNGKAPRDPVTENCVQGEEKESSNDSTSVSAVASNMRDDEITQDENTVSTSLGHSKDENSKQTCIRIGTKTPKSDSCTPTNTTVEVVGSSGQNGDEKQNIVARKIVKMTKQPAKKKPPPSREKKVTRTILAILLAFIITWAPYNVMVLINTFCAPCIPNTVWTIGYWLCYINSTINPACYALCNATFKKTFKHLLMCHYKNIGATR", "assay": "Muscarinic receptor radioligand displacement binding, M2"}, "M3 muscarinic receptor": {"biological_target": "M3 muscarinic receptor (Homo sapiens, UniProt P20309)", "sequence (P20309 whole entry)": "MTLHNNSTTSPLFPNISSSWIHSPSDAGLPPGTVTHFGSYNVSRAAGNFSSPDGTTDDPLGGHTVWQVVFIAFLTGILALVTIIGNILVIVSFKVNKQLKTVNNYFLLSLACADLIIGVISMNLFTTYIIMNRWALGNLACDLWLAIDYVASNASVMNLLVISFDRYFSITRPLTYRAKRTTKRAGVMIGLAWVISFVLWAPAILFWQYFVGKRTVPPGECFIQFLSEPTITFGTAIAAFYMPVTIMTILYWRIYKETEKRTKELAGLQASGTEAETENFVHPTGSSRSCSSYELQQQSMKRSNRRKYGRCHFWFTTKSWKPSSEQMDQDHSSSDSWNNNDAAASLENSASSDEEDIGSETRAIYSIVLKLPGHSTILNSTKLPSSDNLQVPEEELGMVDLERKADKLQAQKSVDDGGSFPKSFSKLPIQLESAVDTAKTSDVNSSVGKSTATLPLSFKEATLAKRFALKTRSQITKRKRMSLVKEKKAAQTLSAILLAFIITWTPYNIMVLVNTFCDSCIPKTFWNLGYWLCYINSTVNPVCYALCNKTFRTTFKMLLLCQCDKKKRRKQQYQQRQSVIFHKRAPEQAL", "assay": "Muscarinic receptor radioligand displacement binding, M3"}, "M4 muscarinic receptor": {"biological_target": "T3, M4 muscarinic receptor (Homo sapiens, UniProt P08173)", "T3 sequence (P08173 1-479)": "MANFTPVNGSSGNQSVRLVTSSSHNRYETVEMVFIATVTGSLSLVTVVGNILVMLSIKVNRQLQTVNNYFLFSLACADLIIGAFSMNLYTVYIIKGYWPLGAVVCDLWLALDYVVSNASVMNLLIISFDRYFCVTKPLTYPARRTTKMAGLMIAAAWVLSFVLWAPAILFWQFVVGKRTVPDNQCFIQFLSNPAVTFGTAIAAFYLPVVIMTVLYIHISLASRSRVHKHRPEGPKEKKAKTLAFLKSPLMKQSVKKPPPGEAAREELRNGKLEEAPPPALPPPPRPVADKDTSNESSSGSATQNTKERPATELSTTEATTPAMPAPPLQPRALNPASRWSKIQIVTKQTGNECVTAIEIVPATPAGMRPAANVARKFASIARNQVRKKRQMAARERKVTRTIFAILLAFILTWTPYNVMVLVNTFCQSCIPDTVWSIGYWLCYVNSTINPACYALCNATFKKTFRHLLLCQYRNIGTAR", "assay": "Muscarinic receptor radioligand displacement binding, M4"}, "M5 muscarinic receptor": {"biological_target": "T4, M5 muscarinic receptor (Homo sapiens, UniProt P08912)", "T4 sequence (P08912 1-532)": "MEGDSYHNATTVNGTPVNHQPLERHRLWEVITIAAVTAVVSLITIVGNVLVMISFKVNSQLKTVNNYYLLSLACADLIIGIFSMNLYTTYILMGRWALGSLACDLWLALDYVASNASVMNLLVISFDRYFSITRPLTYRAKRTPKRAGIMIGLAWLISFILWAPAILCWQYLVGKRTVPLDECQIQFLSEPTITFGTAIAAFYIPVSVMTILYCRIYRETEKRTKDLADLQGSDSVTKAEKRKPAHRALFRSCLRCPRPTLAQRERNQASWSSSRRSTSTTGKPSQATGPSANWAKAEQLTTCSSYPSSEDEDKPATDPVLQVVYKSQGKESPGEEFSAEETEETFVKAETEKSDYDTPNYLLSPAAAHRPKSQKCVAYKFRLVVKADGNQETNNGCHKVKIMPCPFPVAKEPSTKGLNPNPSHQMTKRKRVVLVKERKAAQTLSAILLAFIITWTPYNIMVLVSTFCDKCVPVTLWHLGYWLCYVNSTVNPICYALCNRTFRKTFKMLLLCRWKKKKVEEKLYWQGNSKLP", "assay": "Muscarinic receptor radioligand displacement binding, M5"}, "muscarinic receptors": {"tested_on": "muscarinic receptors", "assay": "Binding selectivity across the muscarinic receptors", "conditions": "M1-M5"}, "[2]": {"assay": "Methyl atropine in lowered-pH phosphate vehicles with tonicity agents", "format": "physicochemical", "from_the_text": "Therefore, lowering the initial pH value of the vehicles was deemed necessary to: i) ensure higher solubility; and ii) reach an ophthalmically-acceptable target pH (5-8). Also, the addition of tonicity agents was needed to reach the acceptable target range of 280-320 mOsm/kg (Table 4 and Table 5)."}, "[3]": {"assay": "pH adjustment of methyl atropine and benzyl atropine solutions, HPLC analysis", "format": "physicochemical", "conditions": "for Actual concentration (HPLC): after pH adjustment; for Initial pH: before pH adjustment"}, "[4]": {"conditions": "5 min, pH 7.4"}, "[5]": {"assay": "Solubility screen in two simple vehicles, pH 7.4", "conditions": "for pH of the formulation: pH 7.4"}, "myopia progression": {"tested_on": "myopia progression", "conditions": "higher doses; cited from earlier work"}, "[6]": {"conditions": "0.5% Sodium Chloride in 20 mM Phosphate Buffer, pH 2.71"}, "[7]": {"conditions": "3% Mannitol in 20 mM Phosphate Buffer, pH 4.8"}, "[8]": {"conditions": "3.7% Mannitol in 20 mM Phosphate Buffer, pH 2.82"}, "[9]": {"conditions": "[…] Sodium Choride in 20 mM Phosphate Buffer, pH 4.8"}},
  "note": "Where two headings read alike, the source gives them in different places.",
  "data": [
    {"smiles": "CN1C2CCC1CC(OC(=O)C(F)(CO)c1ccccc1)C2", "note": "(stereo not shown) [fluoro-atropine]", "values": [
      {"measurement": "efficacy in FDM chick model", "setting": "[1]", "result": "effective"},
      {"measurement": "change in refractive error (goggled eye value minus ungoggled eye value)", "setting": "[1]", "result": "significantly decreased"}
    ]},
    {"smiles": "C[N+]1(C)[C@@H]2CC[C@H]1C[C@@H](OC(=O)C(CO)c1ccccc1)C2", "note": "(stereo partly shown) [Methyl Atropine, methyl atropine]", "values": [
      {"measurement": "Ki", "setting": "M1 muscarinic receptor", "result": 3.4, "unit": "nM"},
      {"measurement": "Ki", "setting": "M2 muscarinic receptor", "result": 7.8, "unit": "nM"},
      {"measurement": "Ki", "setting": "M3 muscarinic receptor", "result": 2.4, "unit": "nM"},
      {"measurement": "Ki", "setting": "M4 muscarinic receptor", "result": 1.2, "unit": "nM"},
      {"measurement": "Ki", "setting": "M5 muscarinic receptor", "result": 2.2, "unit": "nM"},
      {"measurement": "selectivity of binding to the muscarinic receptors", "setting": "muscarinic receptors", "result": "non-selective binding"},
      {"measurement": "efficacy in FDM chick model", "setting": "[1]", "result": "effective"},
      {"measurement": "change in refractive error (goggled eye value minus ungoggled eye value)", "setting": "[1]", "result": "significantly decreased"},
      {"measurement": "Actual Concentration", "setting": "[2]; [6]", "result": 5.38, "unit": "mg/g"},
      {"measurement": "Final pH", "setting": "[2]; [6]", "result": 6.7},
      {"measurement": "Osmolality", "setting": "[2]; [6]", "result": 202.5, "unit": "mOsm/kg"},
      {"measurement": "Actual Concentration", "setting": "[2]; [7]", "result": 5.62, "unit": "mg/g"},
      {"measurement": "Final pH", "setting": "[2]; [7]", "result": 8.8},
      {"measurement": "Osmolality", "setting": "[2]; [7]", "result": 217, "unit": "mOsm/kg"},
      {"measurement": "Actual Concentration", "setting": "[2]; [8]", "result": 5.14, "unit": "mg/g"},
      {"measurement": "Final pH", "setting": "[2]; [8]", "result": 6.8},
      {"measurement": "Osmolality", "setting": "[2]; [8]", "result": 262.5, "unit": "mOsm/kg"},
      {"measurement": "Actual Concentration", "setting": "[2]; [9]", "result": 5.14, "unit": "mg/g"},
      {"measurement": "Final pH", "setting": "[2]; [9]", "result": 8.0},
      {"measurement": "Osmolality", "setting": "[2]; [9]", "result": 182.5, "unit": "mOsm/kg"},
      {"measurement": "Actual concentration (HPLC)", "setting": "[3]; 30 mM Phosphate Buffer, pH 7.4", "result": 4.61, "unit": "mg/g"},
      {"measurement": "Initial pH", "setting": "[3]; 30 mM Phosphate Buffer, pH 7.4", "result": 8.1},
      {"measurement": "Actual concentration (HPLC)", "setting": "[3]; Phosphate Buffered Saline", "result": 4.89, "unit": "mg/g"},
      {"measurement": "Initial pH", "setting": "[3]; Phosphate Buffered Saline", "result": 9.3},
      {"measurement": "Actual Concentration", "setting": "[4]", "result": 1.63, "unit": "mg/g"},
      {"measurement": "pH of the formulation", "setting": "[5]; 30 mM Phosphate Buffer", "result": 9.2},
      {"measurement": "pH of the formulation", "setting": "[5]; Phosphate Buffered Saline", "result": 9.6},
      {"measurement": "dissolution in vehicle (in words)", "setting": "[5]; both vehicles: 30 mM phosphate buffer pH 7.4 and phosphate-buffered saline pH 7.4", "result": "did not entirely dissolve"}
    ]},
    {"smiles": "CN1[C@@H]2CC[C@H]1C[C@@H](OC(=O)C(CO)c1ccccc1)C2", "note": "(mixture of isomers) [Atropine, atropine]", "values": [
      {"measurement": "side effects", "setting": "myopia progression", "result": "pupillary dilation and light sensitivity"}
    ]}
  ]
}
